For assay [1], the target named is T1, human KOR (Homo sapiens, UniProt P41145).
T1 construct: expressed in transfected cells; host or cells: CHO cells expressing hKOR (membranes), according to the assay names of the earlier reading
Nature of the assay: biochemical. To be noted: read-out: Emax ± SEM.

Assay [2] deals with KOR. More on the design: method as in PMID 14718611. To be noted: [3H]bremazocine as radiolabeled ligand; cited from earlier work.

T1 sequence (P41145 whole entry): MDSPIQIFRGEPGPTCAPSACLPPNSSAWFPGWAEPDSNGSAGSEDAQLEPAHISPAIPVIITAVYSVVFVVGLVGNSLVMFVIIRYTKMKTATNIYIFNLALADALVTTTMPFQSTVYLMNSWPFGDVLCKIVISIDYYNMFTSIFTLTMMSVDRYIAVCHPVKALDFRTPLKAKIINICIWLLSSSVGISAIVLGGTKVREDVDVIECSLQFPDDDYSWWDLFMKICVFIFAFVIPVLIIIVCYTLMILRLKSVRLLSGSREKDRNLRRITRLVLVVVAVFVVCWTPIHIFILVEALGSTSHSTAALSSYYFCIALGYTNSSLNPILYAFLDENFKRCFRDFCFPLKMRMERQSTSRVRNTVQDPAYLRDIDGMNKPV

As a reminder, the Emax is the greatest response seen or fitted, relative to the assay's reference. Take `COC(=O)C1CC(O)C(=O)C2C1(C)CCC1C(=O)OC(c3ccoc3)CC12C` (stereo not drawn) [Compound 2b, 8-epi-salvinorin B]: in assay [1], the maximal effect (Emax) was 90 ± 2%.
On to `COC(=O)[C@@H]1C[C@H](O)C(=O)[C@H]2[C@@]1(C)CC[C@H]1C(=O)O[C@H](c3ccoc3)C[C@]21C` [Compound 2a, salvinorin B], for which the “activity at the KOR (in words), early report” value in assay [2] is “inactive”.

Values taken from paper PMC1805503 (Beilstein Journal of Organic Chemistry, 2007).
